Here are results for three compounds from ChEMBL document CHEMBL4316654, “Prenylated Acylphloroglucinols from Hypericum faberi” (J Nat Prod, 2019).

Holding throughout (type): functional, cell-based
Assay [1] concerns PANC-1. In words: Cytotoxicity against human PANC1 cells incubated for 48 hrs by MTT assay. Conditions: PANC-1, 48 h. Background: Formazan colour is commonly taken as a measure of viable cells.
Assay [2] is described as follows: Cytotoxicity against human BIU87 cells incubated for 48 hrs by MTT assay. The following applies: BIU87, 48 h.
The test system of assay [3] is ECa-109 cell line. In words: Cytotoxicity against human ECA109 cells incubated for 48 hrs by MTT assay. The following applies: ECa-109, 48 h.

`CCC(C)C(=O)c1c(O)c(C/C=C(\C)CCC=C(C)C)c(O)c2cc(-c3ccccc3)oc12` (stereo not given): the concentration for half-maximal inhibition (IC50) (commonly the midpoint of a concentration-inhibition curve) in assay [1] was 6.2 µM.
On the same count and under the same terms, the same measure for `CC(C)=CCC/C(C)=C/Cc1c(O)c(C(=O)C(C)C)c2oc(-c3ccc(O)cc3)cc2c1O`: 9 µM.
Consider `CC(=O)O[C@H]1C(=O)[C@@]2(C)[C@H]([C@H](OC(=O)c3ccccc3)[C@]3(O)C[C@H](OC(=O)[C@H](O)[C@@H](NC(=O)c4ccccc4)c4ccccc4)C(C)=C1C3(C)C)[C@]1(OC(C)=O)CO[C@@H]1C[C@@H]2O` [PACLITAXEL], for which the half-inhibitory concentration (IC50) in assay [1] was found to be 3.5 µM; in assay [2], 2.1 µM; in assay [3] it was 1.2 µM.
